Test results taken from patent US20240376094A2, “SELECTIVE BCL-XL PROTAC COMPOUNDS AND METHODS OF USE” (Les Laboratoires Servier, priority 2021, published 2024).

Legend:
Assay type in all cases: cell-based
MOLT-4 cells = assay: MOLT-4 cell viability, MTT assay; conditions: Homo sapiens, MOLT-4, 48 h
Method in brief: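 MOLT-4 cells in RPMI 1640 with 10% FBS were exposed to compounds for 48 h at 9 concentrations (3.16-fold dilutions, triplicates). After 4 h with MTT and overnight SDS/HCl solubilisation, absorbance was read at 540 nm. IC50 came from four-parameter fits versus control, as the mean of ≥2 independent experiments.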

COR-L105 = assay: CellTiter-Glo proliferation assay, COR-L105; conditions: Homo sapiens, COR-L105, 120 h, COR-L105, 5 days; for Emax: read-out: COR-L105 Span (max)
Procedure: (§1) The BCL-xL degrader compounds were tested against two endogenous cancer cell lines: • COR-L105: ECACC No. 92031918 cultured in RPMI-1640+10% FBS • NCI-H1650: (ATCC No. CRL-5883 cultured in RPMI-1640+10% FBS
(§2) The ability of the BCL-xL degrader low molecular weight compounds to inhibit cell proliferation and survival was assessed using the Promega CellTiter-Glo® proliferation assay.
(§3) Cell lines were cultured in media that is optimal for their growth at 5% CO2, 37° C. in a tissue culture incubator. Prior to seeding for the proliferation assay, the cells were split at least 2 days before the assay to ensure optimal growth density. On the day of seeding, adherent cells were lifted off tissue culture flasks using 0.25% trypsin. Cell viability and cell density were determined using a cell counter (Vi-Cell XR Cell Viability Analyzer, Beckman Coulter). Cells with higher than 85% viability were seeded for the assay.
(§4) The COR-105 cell line was seeded in white, clear bottom 384-well TC treated plates (Corning cat. #3765). Cells were seeded at a density of 1,000 cells per well in 45 μL of standard growth media. Plates were incubated at 5% CO2, 37° C. overnight in a tissue culture incubator. The NCI-H1650 cell line was seeded in black, clear round bottom 384-well ultra-low attachment spheroid microplates (Corning cat. #3830). Cells were seeded at a density of 3,000 cells per well in 45 uL of standard growth media. Plates were spun in a centrifuge for 5 minutes and 1,000 RPM. Plates were incubated at 5% CO2, 37° C. for 72 hours in a tissue culture incubator.
(§5) On the day of dosing, BCL-xL degrader low molecular weight compounds were prepared at 1 OX in standard growth media. The prepared drug treatments were then added to the cells resulting in final concentrations of 0.508 nM-10 μM and a final volume of 50 μL per well. Each drug concentration was tested in quadruplets. Plates were incubated at 5% CO2, 37° C. for 5 days in a tissue culture incubator.
(§6) For COR-L105 plates, cell viability was assessed through the addition of 25 μL of CellTiter Glo® (Promega, cat #G7573), a reagent which lyses cells and measures total adenosine triphosphate (ATP) content. Plates were incubated at room temperature for 10 minutes to stabilize luminescent signals prior to reading with a luminescence reader (EnVision Multilabel Plate Reader, PerkinElmer). For NCI-H1650 plates, cell viability was assessed through the addition of 40 μL of CellTiter Glo® 3D Cell Viability Assay substrate (Promega, cat #G9681), a reagent which lyses cells and measures total adenosine triphosphate (ATP) content. Wells were mixed thoroughly and plates were incubated at room temperature for 30 minutes to stabilize luminescent signals prior to reading using a luminescence reader (EnVision Multilabel Plate Reader, PerkinElmer).
(§7) To evaluate the effect of the drug treatments, luminescent counts from wells containing untreated cells (100% viability) were used to normalize treated samples. A variable slope model was applied to fit a nonlinear regression curve to the data in GraphPad PRISM version 7.02 software. IC50 and Amax values were extrapolated from the resultant curves. The concentrations of treatment required to inhibit 50% of cell growth or survival (IC50) were calculated with representative IC50 values of the cell lines tested summarized in Table 11.

NCI-H1650 = assay: CellTiter-Glo 3D proliferation assay, NCI-H1650 spheroids; set-up: key to NCI-H1650 Span (Amax): —: constructs were tested and inactive; conditions: 5 days; for IC50 / Emax: Homo sapiens, NCI-H1650, 120 h; for Emax: read-out: NCI-H1650 Span (Amax)
Procedure: as §1, §2, §3, §4, §5, §6, §7

Bcl-xL = biological target: T1, Bcl-xL (Homo sapiens, UniProt Q07817); assay: HCT116 Bcl-xL degradation, capillary-based immunoassay (WES); conditions: for DC50: HCT116, 24 h, 9-point serial dilution; for remaining activity at 0.01 µM / remaining activity at 0.1 µM: HCT-116, 24 h, % of untreated cells; for remaining activity at 0.01 µM: HCT116, 10 nM; for remaining activity at 0.1 µM: HCT116, 100 nM
T1 construct: Measured levels of Bcl-xL protein of HCT116 cells treated with the tested compounds; host or cells: HCT116
T1 sequence (Q07817 whole entry): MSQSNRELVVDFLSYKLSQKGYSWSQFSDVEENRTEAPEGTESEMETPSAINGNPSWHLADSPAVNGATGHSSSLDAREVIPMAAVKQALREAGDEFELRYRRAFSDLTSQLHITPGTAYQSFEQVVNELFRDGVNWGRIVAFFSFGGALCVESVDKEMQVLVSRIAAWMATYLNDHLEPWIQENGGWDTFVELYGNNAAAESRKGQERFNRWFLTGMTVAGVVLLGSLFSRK
Method in brief: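 HCT116 cells treated 24 h with compound at 10/100 nM and/or 9-point dilution (quadruplicates), then lysed. Bcl-xL measured by capillary WES immunoassay, normalized to cofilin and expressed as % of untreated cells. DC50 from four-parameter curve fit.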

Row | IC50 (MOLT-4 cells) | IC50 (NCI-H1650) | DC50 (Bcl-xL) | remaining activity at 0.01 µM (Bcl-xL) | remaining activity at 0.1 µM (Bcl-xL) | Structure (SMILES) | IC50 (COR-L105) | Emax (COR-L105) | Emax (NCI-H1650) | NCI-H1650 Span (Amax) (NCI-H1650)
1 | 4.7 nM | 72.8 nM | > 316 nM | 68% | 54% | Cc1ncsc1-c1ccc(CNC(=O)C2C[C@@H](O)CN2C(=O)C(NC(=O)CCCCCC(=O)N2CCN(CCOC34CC5(C)CC(C)(CC(Cn6ncc(-c7ccc(N8CCCc9c8nnc(Nc8nc%10ccccc%10s8)c9C)nc7C(=O)O)c6C)(C5)C3)C4)CC2)C(C)(C)C)cc1 (stereo in doubt) [Example 22, 6-[3-(1,3-benzothiazol-2-ylamino)-4-methyl-6,7-dihydro-5H-pyrido[2,3-c]pyridazin-8-yl]-3-[1-[[3-[2-[4-[7-[[(1S)-1-[(2S,4R)-4-hydroxy-2-[[4-(4-methylthiazol-5-yl)phenyl]methylcarbamoyl]pyrrolidine-1-carbonyl]-2,2-dimethyl-propyl]amino]-7-oxo-heptanoyl]piperazin-1-yl]ethoxy]-5,7-dimethyl-1-adamantyl]methyl]-5-methyl-pyrazol-4-yl]pyridine-2-carboxylic acid] | 275 nM | 104% | 92.6% | 
2 | 10.5 nM | 35.7 nM |  | 82% | 67% | Cc1ncsc1-c1ccc(CNC(=O)[C@@H]2CC(O)CN2C(=O)C(NC(=O)CCCCC(=O)N2CCN(CCOC34CC5(C)CC(C)(CC(Cn6ncc(-c7ccc(N8CCCc9c8nnc(Nc8nc%10ccccc%10s8)c9C)nc7C(=O)O)c6C)(C5)C3)C4)CC2)C(C)(C)C)cc1 (stereo in doubt) [Example 23, 6-[3-(1,3-benzothiazol-2-ylamino)-4-methyl-6,7-dihydro-5H-pyrido[2,3-c]pyridazin-8-yl]-3-[1-[[3-[2-[4-[6-[[(1S)-1-[(2S,4R)-4-hydroxy-2-[[4-(4-methylthiazol-5-yl)phenyl]methylcarbamoyl]pyrrolidine-1-carbonyl]-2,2-dimethyl-propyl]amino]-6-oxo-hexanoyl]piperazin-1-yl]ethoxy]-5,7-dimethyl-1-adamantyl]methyl]-5-methyl-pyrazol-4-yl]pyridine-2-carboxylic acid] | 183 nM | 100% | 71.4% | 
3 | 1.09 nM | 38.8 nM | > 316 nM | 59% | 55% | Cc1c(Nc2nc3ccccc3s2)nnc2c1CCCN2c1nc(C(=O)O)c(CCCOc2ccc(C#CCN3CCN(C(=O)CCCCCCC(=O)NCCOCCNC(=O)COc4cccc5c4C(=O)N(C4CCC(=O)NC4=O)C5=O)CC3)cc2F)s1 (centres unmarked) [Example 25, 2-[3-(1,3-benzothiazol-2-ylamino)-4-methyl-6,7-dihydro-5H-pyrido[2,3-c]pyridazin-8-yl]-5-[3-[4-[3-[4-[8-[2-[2-[[2-[2-(2,6-dioxo-3-piperidyl)-1,3-dioxo-isoindolin-4-yl]oxyacetyl]amino]ethoxy]ethylamino]-8-oxo-octanoyl]piperazin-1-yl]prop-1-ynyl]-2-fluoro-phenoxy]propyl]thiazole-4-carboxylic acid] | 174 nM | 87.4% | 74% | 
4 | 64.2 nM | > 1000 nM |  | 83% | 53% | Cc1cc(N(C)c2nc(C(=O)O)c(CCCOc3ccc(C#CCN(C)CC(=O)NCCOCCNC(=O)COc4cccc5c4C(=O)N(C4CCC(=O)NC4=O)C5=O)cc3F)s2)nnc1Nc1nc2ccccc2s1 (centres unmarked) [Example 32, 2-[[6-(1,3-benzothiazol-2-ylamino)-5-methyl-pyridazin-3-yl]-methyl-amino]-5-[3-[4-[3-[[2-[2-[2-[[2-[2-(2,6-dioxo-3-piperidyl)-1,3-dioxo-isoindolin-4-yl]oxyacetyl]amino]ethoxy]ethylamino]-2-oxo-ethyl]-methyl-amino]prop-1-ynyl]-2-fluoro-phenoxy]propyl]thiazole-4-carboxylic acid] | > 10000 nM |  |  | —
